Data as given in patent US5693488A, “Transmembrane tyrosine phosphatase, nucleic acids encoding the same, and methods of use thereof” (The Rockefeller University, priority 1994, dated 1997).

What was measured:
ChPTPλ = experiment: PTP assay of ChPTPλ immunoprecipitated with A299 from DT40 cells (release of 32Pi from tyrosine-phosphorylated substrate); format: biochemical, chicken; conditions: for ChPTPλ (% activity): buffer 20 mM Hepes (pH 7.4); for effect on ChPTPλ activity (in words) / effect on ChPTPλ activity: concentration not given (Table 1); for requirement for higher ChPTPλ activity in vitro (in words): chelator
Description: For immunoblot (Western) analysis, cells were lysed in 1% SDS containing protease inhibitor mix (1 mM phenylmethylsulfonyl fluoride/2 μg aprotinin per ml/1 μg pepstatin per ml) (Boehringer). […] For immunoprecipitation, cells were solubilized in 1% NP-40/PBS/protease inhibitor mix, then ChPTPλ was immunoprecipitated with pA299 (25).
(§1) Raytide (Oncogene Science) and bovine brain myelin basic protein (Sigma) (20 μg each) were phosphorylated on tyrosines by v-Src (34 pg), purified from a baculovirus expression system (35a), in 50 μl containing 20 mM Tris-HCl, pH 7.2/5 mM MnCl2 /50 μCi [γ-^32 P]ATP at 30° C. for 3 h. Casein and histone 2B (Sigma) were phosphorylated on serines and threonines by the catalytic subunit of calf heart cAMP-dependent protein kinase (1 U, Sigma) in 50 μl including 25 mM Hepes, pH 7.4/10 mM MgCl2 /10 mM DTT/50 μCi [γ-^32 P]ATP. All reactions were terminated by TCA-precipitationand resuspended in Tris-HCl (pH 8.0) as previously described (5).
(§2) […] When bacterial extract was used, assay was done in 50 μl of PTP buffer. After incubating at 30° C. for 30 min, the reactions were stopped, and the released ^32 Pi was measured as previously described (5).

[1] = target: T1, pKPTPλ, truncated ChPTPλ containing the intracellular domain (Gallus gallus, UniProt Q91976); experiment: PTP assay of bacterial extract expressing pKPTPλ; format: biochemical, chicken
T1 construct: HindIII/EcoRI fragment in pKKUC12, E. coli DHB4 extract
T1 sequence (Q91976 541-1237): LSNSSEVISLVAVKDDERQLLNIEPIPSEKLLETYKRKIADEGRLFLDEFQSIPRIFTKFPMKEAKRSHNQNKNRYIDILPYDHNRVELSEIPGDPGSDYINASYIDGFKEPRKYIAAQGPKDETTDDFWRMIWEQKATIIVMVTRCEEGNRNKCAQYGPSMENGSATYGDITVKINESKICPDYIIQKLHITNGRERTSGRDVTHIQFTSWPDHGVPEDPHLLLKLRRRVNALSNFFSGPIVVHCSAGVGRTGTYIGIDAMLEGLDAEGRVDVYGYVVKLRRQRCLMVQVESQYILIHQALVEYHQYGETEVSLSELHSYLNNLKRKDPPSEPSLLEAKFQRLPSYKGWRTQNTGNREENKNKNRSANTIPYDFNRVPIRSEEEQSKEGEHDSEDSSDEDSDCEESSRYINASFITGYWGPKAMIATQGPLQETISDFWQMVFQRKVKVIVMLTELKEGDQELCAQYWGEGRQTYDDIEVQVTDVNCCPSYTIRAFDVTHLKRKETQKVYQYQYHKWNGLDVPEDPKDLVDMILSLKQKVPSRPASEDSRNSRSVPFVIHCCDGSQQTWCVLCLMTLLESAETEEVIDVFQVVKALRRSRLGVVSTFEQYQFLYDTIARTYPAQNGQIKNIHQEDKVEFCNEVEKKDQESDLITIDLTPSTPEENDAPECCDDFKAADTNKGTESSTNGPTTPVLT
Description: A 2 kb-cDNA fragment encoding the entire intracellular domain of ChPTPλ was excised by HindIII and EcoRI (starting from leucine 520, FIG. 2A-2C) and ligated to the expression vector pKKUC12. The recombinant,pkPTPλ, was transformed into E. coli DHB4 that lacks alkaline phosphatase (35). After induction by 0.4 mM IPTG for 2 h, bacterial extracts were prepared (5) and 5 μl samples were used for PTP assays. The extract of DHB4 containing the vector only was used as a negative control.
as §1, §2

[2] = 10 mM, buffer 20 mM Hepes (pH 7.4), 10 mM DTT, 5 mM EDTA

[Ca+2].[Cl-].[Cl-] [CaCl2]
ChPTPλ (% activity) (ChPTPλ; 10 mM, 10 mM DTT, 5 mM EDTA): 100%
effect on ChPTPλ activity (in words) (ChPTPλ): no effect at all
pKPTPλ (% activity) [1, 2]: 90%

O[C@@H](CS)[C@@H](O)CS [DTT]
ChPTPλ (% activity) (ChPTPλ; 10 nM): 65%
ChPTPλ (% activity) (ChPTPλ; 1 mM): 39%
requirement for ChPTPλ activity (in words) (ChPTPλ; 10 mM, reducing reagent): required for ChPTPλ activity
pKPTPλ (% activity) ([1]; 10 nM, buffer 20 mM Hepes (pH 7.4)): 80%

O=C(O)CN(CCN(CC(=O)O)CC(=O)O)CC(=O)O [EDTA]
ChPTPλ (% activity) (ChPTPλ; 5 nM, 10 mM DTT): 100%
requirement for higher ChPTPλ activity in vitro (in words) (ChPTPλ): needed for ChPTPλ to reach a higher activity
activity at 0.005 µM ([1]; pH 7.4, read-out: pKPTPλ (% activity)): 100%

O=C(O)CN(CCOCCOCCN(CC(=O)O)CC(=O)O)CC(=O)O [EGTA]
ChPTPλ (% activity) (ChPTPλ; 5 mM, 10 mM DTT): 100%
requirement for higher ChPTPλ activity in vitro (in words) (ChPTPλ): needed for ChPTPλ to reach a higher activity
activity at 5000 µM ([1]; 5 mM, buffer 20 mM Hepes (pH 7.4), 10 mM DTT): 100%

O=C(O)CI [Iodoacetate]
inhibition of ChPTPλ (ChPTPλ; 1 mM): > 70%
ChPTPλ (% activity) (ChPTPλ; 1 mM, 10 mM DTT, 5 mM EDTA): 29%

[Cl-].[Cl-].[Mg+2] [MgCl2]
ChPTPλ (% activity) (ChPTPλ; 10 mM, 10 mM DTT, 5 mM EDTA): 80%
effect on ChPTPλ activity (ChPTPλ): < 30%
pKPTPλ (% activity) [1, 2]: 80%

[Cl][Mn][Cl] [MnCl2]
ChPTPλ (% activity) (ChPTPλ; 10 mM, 10 mM DTT, 5 mM EDTA): 87%
effect on ChPTPλ activity (ChPTPλ): < 30%
pKPTPλ (% activity) [1, 2]: 51%
inhibitory influence on pKPTPλ activity ([1]; same assaying conditions (Table 1)): 49%

[Na+].[Na+].[O]=[Mo](=[O])([O-])[O-] [Na2 MoO4]
inhibition of ChPTPλ (ChPTPλ; 0.1 mM): > 70%
ChPTPλ (% activity) (ChPTPλ; 0.1 mM, 10 mM DTT, 5 mM EDTA): 24%
pKPTPλ (% activity) ([1]; 0.1 mM, buffer 20 mM Hepes (pH 7.4), 10 mM DTT, 5 mM EDTA): 11%

[Na+].[Na+].[Na+].[O]=[V]([O-])([O-])[O-] [Na3 VO4]
ChPTPλ (% activity) (ChPTPλ; 0.1 mM, 10 mM DTT, 5 mM EDTA): 78%
inhibition of ChPTPλ (ChPTPλ; 1 mM): > 70%
ChPTPλ (% activity) (ChPTPλ; 1 mM, 10 mM DTT, 5 mM EDTA): 4%
pKPTPλ (% activity) ([1]; 1 mM, buffer 20 mM Hepes (pH 7.4), 10 mM DTT, 5 mM EDTA): 2%

[Cl-].[Na+] [NaCl]
ChPTPλ (% activity) (ChPTPλ; 200 mM, 10 mM DTT, 5 mM EDTA): 100%
effect on ChPTPλ activity (in words) (ChPTPλ): no effect at all

[Cl-].[Cl-].[Zn+2] [ZnCl2]
inhibition of ChPTPλ (ChPTPλ; 10 mM): > 70%
ChPTPλ (% activity) (ChPTPλ; 10 mM, 10 mM DTT, 5 mM EDTA): 12%
pKPTPλ (% activity) [1, 2]: 1%

NaPO4
ChPTPλ (% activity) (ChPTPλ; 10 mM, 10 mM DTT, 5 mM EDTA): 70%
effect on ChPTPλ activity (ChPTPλ): < 30%
pKPTPλ (% activity) [1, 2]: 95%
